In patent US10752933B2, “Methods for the identification, characterization, and use of inhibitors of the fructose-asparagine utilization pathway” (priority 2015, dated 2020):
Entries after “also recorded” stand apart in the source; their conditions may differ.

Columns and labels:
Format in all cases: cell-based, Salmonella enterica serovar Typhimurium
[1] = test system: ΔfraB::kan (HMB206) fraB mutant; test: Growth inhibition of fraB mutant by F-Asn in M9 glucose medium (IC50, IC90, MBC)
Procedure: (§1) FIG. 25 reflects the determination of the IC50 and IC90 of F-Asn to a fraB mutant. Wild-type (strain 14028, ●), ΔfraB::kan (HMB206, □) or Δfra island (HMB205, ▴) were grown in M9 minimal medium containing 5 mM glucose and varying concentrations of F-Asn. The data points represent the optical density obtained after 15 hours of growth at 37° C.
(§2) Growth curves were performed using clear, flat-bottom, 96-well plates. Minimal media with the specified carbon source were prepared and overnight cultures were washed twice with sterile water. In each well, 198-μl aliquots of media were inoculated with 2 μl of washed overnight cultures. A Breathe-Easy membrane film (Diversified Biotech) was placed over each 96-well plate. Growth over 18 hr at 37° C. was measured using hourly OD600 measurements in a SpectraMax M5 (Molecular Devices) Microplate Reader and SoftMax Pro 6.1 software.
(§3) To determine if F-Asn was bacteriostatic or bactericidal to the fraB mutant, the 50% and 90% inhibitory concentration (IC50 and IC90) and the minimum bactericidal concentration (MBC) were characterized. The IC50 and IC90 were determined by adding increasing concentrations of F-Asn to M9 minimal medium containing glucose as the carbon source. Growth of the fraB mutant was then monitored in these media. […] To determine the MBC, a small aliquot of these same cultures was dilution-plated onto LB agar.

Wild-type (strain 14028) = test: Growth inhibition by F-Asn in M9 glucose medium, wild-type; details: M9 minimal medium with glucose and F-Asn
Procedure: as §1, §2, §3

Δfra island (HMB205) = test: Growth inhibition by F-Asn in M9 glucose medium, fra island mutant; details: M9 minimal medium with glucose and F-Asn
Procedure: as §1, §2, §3

[2] = test system: wild-type MA43 Salmonella; test: Growth of Salmonella on Amadori products as sole carbon source; details: NCE minimal medium, carbon source at 5 mM, 37° C.
Procedure: FIG. 2A to FIG. 2E are graphs showing growth of wild-type and fraB1::kan mutant Salmonella on Amadori products. Growth of wild-type MA43 and fraB1::kan mutant MA59 on F-Asn (FIG. 2A), F-Arg (FIG. 2B), F-Lys (FIG. 2C), asparagine, arginine, lysine, or glucose (FIG. 2D). Bacteria were grown overnight in Luria Bertani (LB) broth at 37° C. with shaking, centrifuged, resuspended in water, and subcultured 1:1000 into minimal “no carbon E” (NCE) medium (containing trace metals) and the indicated carbon source at 5 mM. The optical density at 600 nm was then read at time points during growth at 37° C. with shaking. Controls included NCE with no carbon source, and NCE with glucose that was not inoculated, as a sterility control (FIG. 2D). FIG. 2E is a graph showing complementation of a fraB1::kan mutation with plasmid pASD5006 encoding the fra island (ASD6000) or the vector control, pWSK29 (ASD6010). Each point represents the mean of three cultures with error bars indicating standard deviation. FIG. 2A to FIG. 2C: ● wild-type; ◯ fraB mutant; FIG. 2D: ● Glucose wild-type; ◯ Glucose fraB mutant; □ No carbon source; ● Sterility; ⋄ Asn wild-type; * Arg wild-type; × Lys wild type; FIG. 2E: ◯ Glucose fraB mutant+pASD5006; ● Glucose fraB mutant+vector; ▪ F-Asn fraB mutant+pASD5006; F-Asn fraB mutant+vector; y-axis: OD600; x-axis: time (hours).
Amadori products most often result from a spontaneous reaction between a carbonyl group (often of glucose, although numerous other compounds can also react) and an amino group of an amino acid in vivo, and are then referred to as non-enzymatic glycation products. Zhang et al., 8 J. Proteome. Res. 754 (2009); Tessier, 58 Pathol. Biol. 214 (2010). With F-Lys and fructose-arginine (F-Arg) this can happen with the free amino acid, or the side groups of the lysine and arginine residues of a protein. In contrast, fructose-asparagine (F-Asn) can only result from reaction of glucose with the alpha amino group of free asparagine or the N-terminal asparagine of a protein. […]

[3] = test system: wild-type MA43 Salmonella; test: Growth with F-Asn under aerobic and anaerobic conditions with or without tetrathionate; details: 5 mM F-Asn
Procedure: FIG. 4A to FIG. 4D show growth of Salmonella on F-Asn in the presence or absence of tetrathionate or oxygen. Growth of wild-type MA43 and fraB1::kan mutant MA59 on 5 mM F-Asn or 5 mM glucose anaerobically (FIG. 4A and FIG. 4B) or aerobically (FIG. 4C and FIG. 4D) in the presence (FIG. 4A and FIG. 4C) or absence (FIG. 4B and FIG. 4D) of 40 mM tetrathionate (S406 22). Bacteria were grown overnight in LB at 37° C. shaking, centrifuged, resuspended in water, and subcultured 1:1000 into NCE medium containing the indicated carbon source. The optical density at 600 nm was then read at time points during growth at 37° C. with shaking. Each point represents the mean of four cultures with error bars indicating standard deviation. ● F-Asn wild-type; ▪ F-Asn fraB mutant; ▴ Glucose wild-type; ▾ Glucose fraB mutant; x-axis: time (hours); y-axis: OD600.
Growth with F-Asn was tested under aerobic and anaerobic conditions in the presence or absence of the terminal electron acceptor tetrathionate (FIG. 4A to FIG. 4D). […] Competition experiments in which the wild-type and fraB1::kan mutant were grown in the same culture were performed in minimal medium containing F-Asn. As expected, the mutant was severely attenuated during aerobic and anaerobic growth, and in the presence or absence of tetrathionate (FIG. 5). Indeed, the attenuation was most severe during anaerobic growth in the presence of tetrathionate.

NC(=O)C[C@@H](NCC1(O)OC[C@@H](O)[C@@H](O)[C@@H]1O)C(=O)O (stereo partly drawn) [F-Asn, (2R)-4-amino-4-oxo-2-[[(3S,4R,5R)-2,3,4,5-tetrahydroxyoxan-2-yl]methylamino]butanoic acid]
IC50 ([1]; Salmonella enterica, M9 minimal medium, 5 mM glucose, varying F-Asn, optical density after 15 hours at 37° C., 95% confidence interval 9 to 40 μM): 19 µM
IC90 ([1]; Salmonella enterica, M9 minimal medium, 5 mM glucose, varying F-Asn, optical density after 15 hours at 37° C., 95% confidence interval 82 to 368 μM): 174 µM
minimum bactericidal concentration (MBC) ([1]; aliquot of IC50 cultures dilution-plated onto LB agar, up to highest F-Asn concentrations tested): no MBC was revealed
bacteriostatic or bactericidal to the fraB mutant ([1]; in vitro, cultures dilution-plated onto LB agar): bacteriostatic; also recorded: bacteriostatic, not bactericidal
inhibitory to growth (Wild-type (strain 14028)): not
inhibitory to growth (Δfra island (HMB205)): not
growth on Amadori product as sole carbon source [2]: grew as well on F-Asn as on glucose
Salmonella doubling time on F-Asn ([3]; aerobically with tetrathionate): 1.6 ± 0.1 h
Salmonella doubling time on F-Asn ([3]; aerobically without tetrathionate): 2.0 ± 0.3 h
Salmonella doubling time on F-Asn ([3]; anaerobically with tetrathionate): 1.9 ± 0.1 h
Salmonella doubling time on F-Asn ([3]; anaerobically without tetrathionate): 2.9 ± 0.4 h

fructose-arginine [F-Arg]
growth on Amadori product as sole carbon source [2]: unable to grow

fructose-lysine [F-Lys]
growth on Amadori product as sole carbon source [2]: grew slowly and with low yield
